Measurements published in the kinase profiling compilation of Christmann-Franck et al. (2016).
“And” between values parts separate entries of the source, which are not always exact repeats. Equal values may be shown once.

Tests used:
Assay in all cases: radiometric filter-binding kinase assay, Kinase HotSpot
Settings in all cases: compound 0.5 µM; ATP 10 µM
CDK2 CCNA2 (human) = CDK2 CCNA2 (human) (UniProt P24941+P20248)
BRAF (human) = BRAF (human) (UniProt P15056)
IKBKE (human) = IKBKE (human) (UniProt Q14164)
EPHB3 (human) = EPHB3 (human) (UniProt P54753)
MLTK (human) = MLTK (human) (UniProt Q9NYL2)
PAK6 (human) = PAK6 (human) (UniProt Q9NQU5)
STK4 (human) = STK4 (human) (UniProt Q13043)
FYN (human) = FYN (human) (UniProt P06241)
STK38 (human) = STK38 (human) (UniProt Q15208)
CSNK2A1 (human) = CSNK2A1 (human) (UniProt P68400)
JAK3 JH1 JH2 (human) = JAK3 JH1 JH2 (human) (UniProt P52333)
PHKG2 (human) = PHKG2 (human) (UniProt P15735)
PRKCA (human) = PRKCA (human) (UniProt P17252)
MAP4K4 (human) = MAP4K4 (human) (UniProt O95819)
MAP3K8 (human) = MAP3K8 (human) (UniProt P41279)
MAP4K5 (human) = MAP4K5 (human) (UniProt Q9Y4K4)
HCK (human) = HCK (human) (UniProt P08631)
PRKACG (human) = PRKACG (human) (UniProt P22612)
MST1R (human) = MST1R (human) (UniProt Q04912)
AURKA (human) = AURKA (human) (UniProt O14965)
EPHB2 (human) = EPHB2 (human) (UniProt P29323)
MAP2K1 (human) = MAP2K1 (human) (UniProt Q02750)
EPHA6 (human) = EPHA6 (human) (UniProt Q9UF33)
PRKCB1 (human) = PRKCB1 (human) (UniProt P05771)
AURKC (human) = AURKC (human) (UniProt Q9UQB9)
CSNK1E (human) = CSNK1E (human) (UniProt P49674)
NEK3 (human) = NEK3 (human) (UniProt P51956)
IRAK4 (human) = IRAK4 (human) (UniProt Q9NWZ3)
CDK4 CCND3 (human) = CDK4 CCND3 (human) (UniProt P30281+P11802)
MARK1 (human) = MARK1 (human) (UniProt Q9P0L2)
TLK2 (human) = TLK2 (human) (UniProt Q86UE8)
CAMK1G (human) = CAMK1G (human) (UniProt Q96NX5)
LYN (human) = LYN (human) (UniProt P07948)
MINK1 (human) = MINK1 (human) (UniProt Q8N4C8)
STK11 (human) = STK11 (human) (UniProt Q15831)
CDK4 CCND1 (human) = CDK4 CCND1 (human) (UniProt P24385+P11802)
CAMKK2 (human) = CAMKK2 (human) (UniProt Q96RR4)
DSTYK (human) = DSTYK (human) (UniProt Q6XUX3)
MYO3B (human) = MYO3B (human) (UniProt Q8WXR4)
ULK3 (human) = ULK3 (human) (UniProt Q6PHR2)
EGFR (human) = EGFR (human) (UniProt P00533)
LCK (human) = LCK (human) (UniProt P06239)

Chain of HCK (human) (P08631 whole entry, looked up): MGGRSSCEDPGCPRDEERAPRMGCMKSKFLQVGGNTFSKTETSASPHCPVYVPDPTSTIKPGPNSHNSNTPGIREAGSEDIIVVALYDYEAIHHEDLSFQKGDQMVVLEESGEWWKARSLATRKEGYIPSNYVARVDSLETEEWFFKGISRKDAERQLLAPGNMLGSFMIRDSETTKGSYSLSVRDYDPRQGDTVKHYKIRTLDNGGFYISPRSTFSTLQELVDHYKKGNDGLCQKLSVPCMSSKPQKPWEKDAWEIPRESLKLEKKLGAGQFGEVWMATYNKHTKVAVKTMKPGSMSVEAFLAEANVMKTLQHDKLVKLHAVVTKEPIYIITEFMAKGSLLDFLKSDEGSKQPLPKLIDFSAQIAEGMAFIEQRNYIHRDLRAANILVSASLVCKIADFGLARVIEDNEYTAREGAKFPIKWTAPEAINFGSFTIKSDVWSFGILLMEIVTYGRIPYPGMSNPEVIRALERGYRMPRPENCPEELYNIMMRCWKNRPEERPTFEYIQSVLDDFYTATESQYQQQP
Chain of MAP4K5 (human) (Q9Y4K4 whole entry, looked up): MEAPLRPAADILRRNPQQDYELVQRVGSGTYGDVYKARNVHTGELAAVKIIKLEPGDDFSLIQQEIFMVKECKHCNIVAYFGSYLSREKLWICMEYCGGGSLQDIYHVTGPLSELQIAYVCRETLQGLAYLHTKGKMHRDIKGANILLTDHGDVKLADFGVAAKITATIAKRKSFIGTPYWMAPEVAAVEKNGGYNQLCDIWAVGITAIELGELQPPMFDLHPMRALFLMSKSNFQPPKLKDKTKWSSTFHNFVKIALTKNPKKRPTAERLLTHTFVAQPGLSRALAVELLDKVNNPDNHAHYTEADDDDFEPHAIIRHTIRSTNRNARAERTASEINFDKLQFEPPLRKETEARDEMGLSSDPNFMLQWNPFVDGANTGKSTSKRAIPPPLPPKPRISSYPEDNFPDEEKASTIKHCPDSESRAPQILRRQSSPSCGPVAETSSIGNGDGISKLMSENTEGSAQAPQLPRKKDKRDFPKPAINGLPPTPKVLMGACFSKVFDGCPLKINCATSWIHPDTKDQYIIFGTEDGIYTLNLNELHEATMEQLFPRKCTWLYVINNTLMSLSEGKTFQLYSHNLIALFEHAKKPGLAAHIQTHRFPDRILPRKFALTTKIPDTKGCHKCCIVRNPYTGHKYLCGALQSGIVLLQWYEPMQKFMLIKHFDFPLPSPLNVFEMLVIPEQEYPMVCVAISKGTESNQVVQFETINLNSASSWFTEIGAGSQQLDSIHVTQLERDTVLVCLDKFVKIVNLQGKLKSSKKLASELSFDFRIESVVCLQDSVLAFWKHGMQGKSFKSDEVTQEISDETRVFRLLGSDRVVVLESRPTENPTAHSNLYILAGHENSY
Chain of IRAK4 (human) (Q9NWZ3 whole entry, looked up): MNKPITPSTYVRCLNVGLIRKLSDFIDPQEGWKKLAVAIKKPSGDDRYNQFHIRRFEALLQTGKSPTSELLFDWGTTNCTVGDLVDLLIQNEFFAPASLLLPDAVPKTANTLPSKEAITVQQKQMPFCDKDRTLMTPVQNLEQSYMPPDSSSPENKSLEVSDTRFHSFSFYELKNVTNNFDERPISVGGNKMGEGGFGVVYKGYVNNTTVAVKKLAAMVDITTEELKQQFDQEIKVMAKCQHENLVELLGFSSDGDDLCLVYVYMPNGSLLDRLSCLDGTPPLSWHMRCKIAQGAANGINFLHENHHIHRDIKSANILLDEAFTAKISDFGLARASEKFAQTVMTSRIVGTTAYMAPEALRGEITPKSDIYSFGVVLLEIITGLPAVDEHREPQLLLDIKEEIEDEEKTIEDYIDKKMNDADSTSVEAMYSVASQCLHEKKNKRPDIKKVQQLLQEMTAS
Chain of EPHB3 (human) (P54753 whole entry, looked up): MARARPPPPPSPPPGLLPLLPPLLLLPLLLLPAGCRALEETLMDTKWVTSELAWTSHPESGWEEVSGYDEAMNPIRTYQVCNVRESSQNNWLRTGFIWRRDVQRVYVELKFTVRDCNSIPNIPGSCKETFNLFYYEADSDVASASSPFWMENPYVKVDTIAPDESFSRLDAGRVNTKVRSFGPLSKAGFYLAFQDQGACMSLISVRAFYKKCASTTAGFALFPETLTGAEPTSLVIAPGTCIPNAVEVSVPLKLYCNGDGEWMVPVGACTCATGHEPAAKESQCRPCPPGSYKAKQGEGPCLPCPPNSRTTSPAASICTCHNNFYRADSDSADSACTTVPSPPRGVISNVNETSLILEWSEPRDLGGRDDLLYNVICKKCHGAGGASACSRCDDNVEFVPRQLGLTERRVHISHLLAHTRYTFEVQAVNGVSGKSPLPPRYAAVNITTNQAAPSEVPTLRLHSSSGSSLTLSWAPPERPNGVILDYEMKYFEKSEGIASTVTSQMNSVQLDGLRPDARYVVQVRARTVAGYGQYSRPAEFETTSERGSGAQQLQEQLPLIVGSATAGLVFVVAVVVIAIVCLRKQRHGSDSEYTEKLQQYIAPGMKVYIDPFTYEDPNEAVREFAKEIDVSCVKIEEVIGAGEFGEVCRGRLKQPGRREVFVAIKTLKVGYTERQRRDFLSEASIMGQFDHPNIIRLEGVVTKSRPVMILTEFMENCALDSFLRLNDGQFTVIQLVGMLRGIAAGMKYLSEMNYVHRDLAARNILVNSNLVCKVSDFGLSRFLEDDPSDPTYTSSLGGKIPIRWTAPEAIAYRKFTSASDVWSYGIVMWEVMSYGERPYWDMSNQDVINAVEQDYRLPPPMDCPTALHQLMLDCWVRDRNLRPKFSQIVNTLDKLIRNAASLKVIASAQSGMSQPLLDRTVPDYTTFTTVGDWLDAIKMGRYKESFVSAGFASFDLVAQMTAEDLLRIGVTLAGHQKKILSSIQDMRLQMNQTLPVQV
Chain of PHKG2 (human) (P15735 whole entry, looked up): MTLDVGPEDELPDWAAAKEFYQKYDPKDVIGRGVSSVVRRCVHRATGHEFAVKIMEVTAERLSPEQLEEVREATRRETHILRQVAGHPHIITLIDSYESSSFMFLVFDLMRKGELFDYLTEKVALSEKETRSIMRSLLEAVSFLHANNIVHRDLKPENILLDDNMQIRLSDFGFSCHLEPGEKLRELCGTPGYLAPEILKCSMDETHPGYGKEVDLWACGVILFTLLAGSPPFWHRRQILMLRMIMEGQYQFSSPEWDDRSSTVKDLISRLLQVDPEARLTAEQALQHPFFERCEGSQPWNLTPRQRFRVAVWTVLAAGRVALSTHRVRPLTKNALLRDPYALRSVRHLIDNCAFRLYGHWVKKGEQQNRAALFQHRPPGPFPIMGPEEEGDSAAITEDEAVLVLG
Chain of MYO3B (human) (Q8WXR4 whole entry, looked up): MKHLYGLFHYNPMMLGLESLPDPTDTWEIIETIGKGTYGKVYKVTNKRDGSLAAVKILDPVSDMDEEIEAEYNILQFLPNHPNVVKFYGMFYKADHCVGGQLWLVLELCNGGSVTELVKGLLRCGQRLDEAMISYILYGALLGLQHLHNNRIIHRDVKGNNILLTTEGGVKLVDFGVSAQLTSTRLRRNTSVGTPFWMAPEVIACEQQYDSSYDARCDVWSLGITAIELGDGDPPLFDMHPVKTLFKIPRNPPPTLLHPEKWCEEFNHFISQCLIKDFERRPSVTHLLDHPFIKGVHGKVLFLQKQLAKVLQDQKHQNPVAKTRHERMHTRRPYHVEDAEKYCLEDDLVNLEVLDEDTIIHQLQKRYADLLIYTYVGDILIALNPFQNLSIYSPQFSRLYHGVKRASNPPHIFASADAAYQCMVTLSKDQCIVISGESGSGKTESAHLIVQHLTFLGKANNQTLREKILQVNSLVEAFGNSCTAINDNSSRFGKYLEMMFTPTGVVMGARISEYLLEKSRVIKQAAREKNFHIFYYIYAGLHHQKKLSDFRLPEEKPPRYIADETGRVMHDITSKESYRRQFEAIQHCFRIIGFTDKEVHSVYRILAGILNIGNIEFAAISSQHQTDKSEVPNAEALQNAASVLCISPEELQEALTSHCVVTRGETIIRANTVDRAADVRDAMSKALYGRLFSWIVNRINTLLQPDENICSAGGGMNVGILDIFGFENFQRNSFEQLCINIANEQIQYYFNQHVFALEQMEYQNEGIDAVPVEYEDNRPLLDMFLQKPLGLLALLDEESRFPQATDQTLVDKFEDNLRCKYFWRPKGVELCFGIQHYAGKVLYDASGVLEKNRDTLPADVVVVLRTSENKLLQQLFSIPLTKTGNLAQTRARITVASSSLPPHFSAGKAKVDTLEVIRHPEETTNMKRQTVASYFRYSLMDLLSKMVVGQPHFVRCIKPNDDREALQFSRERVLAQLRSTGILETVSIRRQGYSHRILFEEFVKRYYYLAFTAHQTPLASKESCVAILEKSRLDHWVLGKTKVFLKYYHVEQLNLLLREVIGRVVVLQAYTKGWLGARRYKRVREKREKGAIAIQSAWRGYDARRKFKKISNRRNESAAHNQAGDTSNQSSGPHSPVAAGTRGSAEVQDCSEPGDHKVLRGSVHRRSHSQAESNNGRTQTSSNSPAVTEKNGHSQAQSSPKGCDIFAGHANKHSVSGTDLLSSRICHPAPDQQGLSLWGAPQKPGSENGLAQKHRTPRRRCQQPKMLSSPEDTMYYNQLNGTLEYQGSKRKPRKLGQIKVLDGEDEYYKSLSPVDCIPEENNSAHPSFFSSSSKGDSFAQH
Chain of CDK2 CCNA2 (human) (P20248 whole entry, looked up, other chains not shown): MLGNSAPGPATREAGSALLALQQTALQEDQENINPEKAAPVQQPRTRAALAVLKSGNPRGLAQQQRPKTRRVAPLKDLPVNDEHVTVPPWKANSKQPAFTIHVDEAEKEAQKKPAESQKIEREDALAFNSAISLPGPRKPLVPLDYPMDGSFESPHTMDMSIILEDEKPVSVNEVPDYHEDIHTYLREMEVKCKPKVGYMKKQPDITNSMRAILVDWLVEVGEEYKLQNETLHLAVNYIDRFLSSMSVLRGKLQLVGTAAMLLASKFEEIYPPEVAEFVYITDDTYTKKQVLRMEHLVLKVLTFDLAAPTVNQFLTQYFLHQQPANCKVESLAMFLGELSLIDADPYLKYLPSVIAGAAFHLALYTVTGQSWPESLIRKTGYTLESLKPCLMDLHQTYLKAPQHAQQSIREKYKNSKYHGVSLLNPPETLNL

Compound | residual activity (CDK2 CCNA2 (human)) | residual activity (IKBKE (human)) | residual activity (EPHB3 (human)) | residual activity (MLTK (human)) | residual activity (PAK6 (human)) | residual activity (STK4 (human)) | residual activity (FYN (human)) | residual activity (STK38 (human)) | residual activity (CSNK2A1 (human)) | residual activity (JAK3 JH1 JH2 (human)) | residual activity (PHKG2 (human)) | residual activity (PRKCA (human)) | residual activity (MAP4K4 (human)) | residual activity (MAP3K8 (human)) | residual activity (MAP4K5 (human)) | residual activity (HCK (human)) | residual activity (PRKACG (human)) | residual activity (MST1R (human)) | residual activity (AURKA (human)) | residual activity (EPHB2 (human)) | other results
COc1cc2c(cc1OC)-c1[nH]nc(Nc3cccc(F)c3)c1C2 | 87.5% | 93.3% | 97.2% | 44.7% | 84.8% | 91.5% | 73.4% | 113% | 96.6% | 98.6% | 121% | 99.2% | 55.5% | 99.9% | 89% | 61.9% | 102% | 99.1% | 94.6% | 94.8% | residual activity (BRAF (human)): 93.8%; residual activity (MAP2K1 (human)): 90.1%; residual activity (EPHA6 (human)): 82.7%; residual activity (PRKCB1 (human)): 96%; residual activity (AURKC (human)): 94.5%; residual activity (CSNK1E (human)): 94.3%; residual activity (NEK3 (human)): 97.1%; residual activity (IRAK4 (human)): 70%; residual activity (CDK4 CCND3 (human)): 95.4%; residual activity (MARK1 (human)): 96.1%; residual activity (TLK2 (human)): 103%; residual activity (CAMK1G (human)): 101%; residual activity (LYN (human)): 60.2% and 77.5%; residual activity (MINK1 (human)): 83.6%; residual activity (STK11 (human)): 104%; residual activity (CDK4 CCND1 (human)): 93.9%; residual activity (CAMKK2 (human)): 86.8%; residual activity (DSTYK (human)): 93.3%; residual activity (MYO3B (human)): 107%; residual activity (ULK3 (human)): 96.5%
Cn1cc(/C=C2\C(=O)Nc3ccc(S(N)(=O)=O)cc32)c2ccccc21 | 66.2% | 21.9% | 93.2% | 95% | 90.1% | 10.7% | 45.7% | 53.1% | 84.7% | 43.7% | 52% | 123% | 22.5% | 96.8% | 13.4% | 50% | 101% | 100% | 20% | 84.8% | residual activity (EGFR (human)): 77.5%; residual activity (LCK (human)): 57.6%; residual activity (MAP2K1 (human)): 63.6%; residual activity (EPHA6 (human)): 30.2%; residual activity (PRKCB1 (human)): 114%; residual activity (AURKC (human)): 37.1%; residual activity (CSNK1E (human)): 89%; residual activity (NEK3 (human)): 66.2%; residual activity (IRAK4 (human)): 2.98%; residual activity (CDK4 CCND3 (human)): 94%; residual activity (MARK1 (human)): 40.4%; residual activity (TLK2 (human)): 63.2%; residual activity (CAMK1G (human)): 89.2%; residual activity (MINK1 (human)): 53.7%; residual activity (STK11 (human)): 68.2%; residual activity (CDK4 CCND1 (human)): 106%; residual activity (CAMKK2 (human)): 34.4%; residual activity (DSTYK (human)): 92.5%; residual activity (MYO3B (human)): 74.6%; residual activity (ULK3 (human)): 15.8%
